Reference: US20230024778A1, “STRIGOLACTONE RECEPTOR INHIBITOR, AGRICULTURAL COMPOSITION AND USE THEREOF, STRIGA SEED GERMINATION INHIBITOR, AND TRIAZOLE UREA COMPOUND” (The University of Tokyo, priority 2017, published 2023)

Test system: seeds of Striga (Striga hermonthica)
Test: Germination inhibition test of Striga seeds
Format: in vivo
Experimental: The coadministration of the GR24 or the GR24 and the compound 25 was performed on seeds of Striga (Striga hermonthica) pretreated for one week at 30° C. The GR24 treatment was performed with 0.1 μM, and the compound 25 treatment was performed with 50 μM or 100 μM.

## CC1=CC(O/C=C2/C(=O)O[C@@H]3c4ccccc4C[C@H]23)OC1=O (some centres unmarked) [GR24]
GR24 0.1 μM added
  germination of the Striga seeds: germination of the Striga seeds is accelerated
GR24 0.1 μM alone, compound 25 0 μM
  Germination rate of striga seed: 30.92%
